Earlier results on one compound are cited in patent US20200306268A1, “VITAMIN COMPOSITION” (Tempus Bio Technologies LLC, priority 2019, published 2020).

`C=C1CC[C@H](O)C/C1=C/C=C1\CCC[C@]2(C)[C@@H]([C@H](C)CCCC(C)C)CC[C@@H]12` [vitamin D3, (3β,5Z,7E)-9,10-secocholesta-5,7,10(19)-trien-3-ol]: for the setting “MCT oil”, the “solubility in MCT oil” value is “very soluble”. The solubility in water entry (water) was “not soluble”.
